Activity calls are given as the source filed them. The rule behind the calls is not given here.
What was measured:
[1] = Displacement of [3H]flunitrazepam from benzodiazepine receptor in rat brain cortex by scintillation counting; assay type: tissue-based
Mus musculus [2] = test: Anticonvulsant activity against scMet-induced seizures in ip dosed mouse; assay type: functional
Mus musculus [3] = species: Mus musculus; test: Protective index, ratio of TD50 for mouse by rotarod test to ED50 for mouse by scMET test; assay type: functional
[4] = Displacement of [3H]nitrendipine from voltage-dependent calcium channel in rat brain cortex by scintillation counting; assay type: tissue-based
Mus musculus [5] = test: Neurotoxicity in mouse at 30 mg/kg, ip after 0.5 hrs by rotarod test; assay type: toxicity, organism-based; set-up: dose 30 mg/kg, route intraperitoneal; conditions: in vivo
Mus musculus [6] = test: Neurotoxicity in mouse at 30 mg/kg, ip after 4 hrs by rotarod test; assay type: toxicity, organism-based; set-up: dose 30 mg/kg, route intraperitoneal; conditions: in vivo
Mus musculus [7] = test: Neurotoxicity in mouse at 100 mg/kg, ip after 0.5 hrs by rotarod test; assay type: toxicity, organism-based; set-up: dose 100 mg/kg, route intraperitoneal; conditions: in vivo
Mus musculus [8] = test: Neurotoxicity in mouse at 100 mg/kg, ip after 4 hrs by rotarod test; assay type: toxicity, organism-based; set-up: dose 100 mg/kg, route intraperitoneal; conditions: in vivo
Mus musculus [9] = test: Neurotoxicity in mouse at 300 mg/kg, ip after 4 hrs by rotarod test; assay type: toxicity, organism-based; set-up: dose 300 mg/kg, route intraperitoneal; conditions: in vivo
Rattus norvegicus [10] = test: Anticonvulsant activity against maximal electroshock-induced seizures in rat at 30 mg/kg, po after 0.5 hrs; assay type: functional, organism-based; set-up: dose 30 mg/kg
Rattus norvegicus [11] = test: Anticonvulsant activity against maximal electroshock-induced seizures in rat at 30 mg/kg, po after 1 hr; assay type: functional, organism-based; set-up: dose 30 mg/kg
Rattus norvegicus [12] = test: Anticonvulsant activity against maximal electroshock-induced seizures in rat at 30 mg/kg, po after 2 hrs; assay type: functional, organism-based; set-up: dose 30 mg/kg
Rattus norvegicus [13] = test: Neurotoxicity in rat at 30 mg/kg, po after 0.25 hrs by rotarod test; assay type: toxicity, organism-based; set-up: dose 30 mg/kg, route oral; conditions: in vivo
Rattus norvegicus [14] = test: Neurotoxicity in rat at 30 mg/kg, po after 0.5 hrs by rotarod test; assay type: toxicity, organism-based; set-up: dose 30 mg/kg, route oral; conditions: in vivo
Rattus norvegicus [15] = test: Neurotoxicity in rat at 30 mg/kg, po after 1 hr by rotarod test; assay type: toxicity, organism-based; set-up: dose 30 mg/kg, route oral; conditions: in vivo
Rattus norvegicus [16] = test: Neurotoxicity in rat at 30 mg/kg, po after 2 hrs by rotarod test; assay type: toxicity, organism-based; set-up: dose 30 mg/kg, route oral; conditions: in vivo
Rattus norvegicus [17] = test: Neurotoxicity in rat at 30 mg/kg, po after 4 hrs by rotarod test; assay type: toxicity, organism-based; set-up: dose 30 mg/kg, route oral; conditions: in vivo
[18] = Neurotoxicity in ip dosed mouse by rotarod test; assay type: toxicity, organism-based; conditions: in vivo
Mus musculus [19] = test: Anticonvulsant activity against maximal electroshock-induced seizures in ip dosed mouse; assay type: functional
Mus musculus [20] = species: Mus musculus; test: Protective index, ratio of TD50 for mouse by rotarod test to ED50 for mouse by MES test; assay type: functional
Mus musculus [21] = test: Anticonvulsant activity against maximal electroshock-induced seizures in mouse at 30 mg/kg, ip after 0.5 hrs; assay type: functional, organism-based; set-up: dose 30 mg/kg
Mus musculus [22] = test: Anticonvulsant activity against maximal electroshock-induced seizures in mouse at 30 mg/kg, ip after 4 hrs; assay type: functional, organism-based; set-up: dose 30 mg/kg
Mus musculus [23] = test: Anticonvulsant activity against maximal electroshock-induced seizures in mouse at 300 mg/kg, ip after 0.5 hrs; assay type: functional, organism-based; set-up: dose 300 mg/kg
Mus musculus [24] = test: Anticonvulsant activity against maximal electroshock-induced seizures in mouse at 300 mg/kg, ip after 4 hrs; assay type: functional, organism-based; set-up: dose 300 mg/kg
Mus musculus [25] = test: Anticonvulsant activity against scMet-induced seizures in mouse at 100 mg/kg, ip after 4 hrs; assay type: functional, organism-based; set-up: dose 100 mg/kg
Mus musculus [26] = test: Anticonvulsant activity against scMet-induced seizures in mouse at 30 mg/kg, ip after 0.5 hrs; assay type: functional, organism-based; set-up: dose 30 mg/kg
Mus musculus [27] = test: Anticonvulsant activity against scMet-induced seizures in mouse at 30 mg/kg, ip after 4 hrs; assay type: functional, organism-based; set-up: dose 30 mg/kg
Mus musculus [28] = test: Anticonvulsant activity against scMet-induced seizures in mouse at 300 mg/kg, ip after 0.5 hrs; assay type: functional, organism-based; set-up: dose 300 mg/kg
Mus musculus [29] = test: Anticonvulsant activity against scMet-induced seizures in mouse at 300 mg/kg, ip after 4 hrs; assay type: functional, organism-based; set-up: dose 300 mg/kg
Mus musculus [30] = test: Neurotoxicity in mouse at 30 mg/kg, ip after 1 hr by rotarod test; assay type: toxicity, organism-based; set-up: dose 30 mg/kg, route intraperitoneal; conditions: in vivo
Mus musculus [31] = test: Neurotoxicity in mouse at 100 mg/kg, ip after 1 hr by rotarod test; assay type: toxicity, organism-based; set-up: dose 100 mg/kg, route intraperitoneal; conditions: in vivo
Mus musculus [32] = test: Neurotoxicity in mouse at 300 mg/kg, ip after 0.5 hrs by rotarod test; assay type: toxicity, organism-based; set-up: dose 300 mg/kg, route intraperitoneal; conditions: in vivo
Rattus norvegicus [33] = test: Anticonvulsant activity against maximal electroshock-induced seizures in rat at 30 mg/kg, po after 0.25 hrs; assay type: functional, organism-based; set-up: dose 30 mg/kg
Rattus norvegicus [34] = test: Anticonvulsant activity against maximal electroshock-induced seizures in rat at 30 mg/kg, po after 4 hrs; assay type: functional, organism-based; set-up: dose 30 mg/kg
Mus musculus [35] = test: Anticonvulsant activity against maximal electroshock-induced seizures in mouse at 100 mg/kg, ip after 0.5 hrs; assay type: functional, organism-based; set-up: dose 100 mg/kg
Mus musculus [36] = test: Anticonvulsant activity against maximal electroshock-induced seizures in mouse at 100 mg/kg, ip after 4 hrs; assay type: functional, organism-based; set-up: dose 100 mg/kg
Mus musculus [37] = test: Anticonvulsant activity against scMet-induced seizures in mouse at 100 mg/kg, ip after 0.5 hrs; assay type: functional, organism-based; set-up: dose 100 mg/kg
Mus musculus [38] = test: Neurotoxicity in mouse at 10 mg/kg, ip after 0.5 hrs by rotarod test; assay type: toxicity, organism-based; set-up: dose 10 mg/kg, route intraperitoneal; conditions: in vivo
Mus musculus [39] = test: Neurotoxicity in mouse at 10 mg/kg, ip after 4 hrs by rotarod test; assay type: toxicity, organism-based; set-up: dose 10 mg/kg, route intraperitoneal; conditions: in vivo
Mus musculus [40] = test: Neurotoxicity in mouse at 3 mg/kg, ip after 0.5 hrs by rotarod test; assay type: toxicity, organism-based; set-up: dose 3 mg/kg, route intraperitoneal; conditions: in vivo
Mus musculus [41] = test: Anticonvulsant activity against maximal electroshock-induced seizures in mouse at 3 mg/kg, ip after 0.5 hrs; assay type: functional, organism-based; set-up: dose 3 mg/kg
Mus musculus [42] = test: Anticonvulsant activity against maximal electroshock-induced seizures in mouse at 10 mg/kg, ip after 0.5 hrs; assay type: functional, organism-based; set-up: dose 10 mg/kg
Mus musculus [43] = test: Anticonvulsant activity against maximal electroshock-induced seizures in mouse at 10 mg/kg, ip after 4 hrs; assay type: functional, organism-based; set-up: dose 10 mg/kg
Mus musculus [44] = test: Anticonvulsant activity against scMet-induced seizures in mouse at 10 mg/kg, ip after 0.5 hrs; assay type: functional, organism-based; set-up: dose 10 mg/kg
Mus musculus [45] = test: Anticonvulsant activity against scMet-induced seizures in mouse at 10 mg/kg, ip after 4 hrs; assay type: functional, organism-based; set-up: dose 10 mg/kg
Mus musculus [46] = test: Neurotoxicity in mouse at 100 mg/kg, ip after 0.25 hrs by rotarod test; assay type: toxicity, organism-based; set-up: dose 100 mg/kg, route intraperitoneal; conditions: in vivo
Mus musculus [47] = test: Anticonvulsant activity against maximal electroshock-induced seizures in mouse at 100 mg/kg, ip after 1 hr; assay type: functional, organism-based; set-up: dose 100 mg/kg

Row | SMILES | Neurotoxicity (Mus musculus [5]) | Neurotoxicity (Mus musculus [6]) | Neurotoxicity (Mus musculus [8]) | Neurotoxicity (Mus musculus [9]) | Neurotoxicity (Rattus norvegicus [13]) | Neurotoxicity (Rattus norvegicus [14]) | Neurotoxicity (Rattus norvegicus [15]) | Neurotoxicity (Rattus norvegicus [16]) | Neurotoxicity (Rattus norvegicus [17]) | Activity (Mus musculus [21]) | Activity (Mus musculus [22]) | Activity (Mus musculus [23]) | Activity (Mus musculus [24]) | Activity (Mus musculus [25]) | Activity (Mus musculus [26]) | Activity (Mus musculus [27]) | Activity (Mus musculus [28]) | Activity (Mus musculus [29]) | Activity (Mus musculus [35]) | Activity (Mus musculus [37]) | further results
1 | CN1C(=O)CN=C(c2ccccc2)c2cc(Cl)ccc21 [DIAZEPAM] |  |  |  |  |  |  |  |  |  |  |  |  |  |  |  |  |  |  |  |  | EC50 [1]: 0.7 µM
2 | NC(=O)N1c2ccccc2C=Cc2ccccc21 [CARBAMAZEPINE] |  |  |  |  |  |  |  |  |  |  |  |  |  |  |  |  |  |  |  |  | ED50 (Mus musculus [2]): > 50 mg/kg; PI (Mus musculus [3]): <1; EC50 [4]: 1.2 µM
3 | C[C@@H](CO)NCc1ccc2oc3cc(Cl)ccc3c(=O)c2c1 | Not Active | Not Active | Not Active | Not Active | Not Active | Not Active | Not Active | Not Active | Not Active | inactive | inactive | Active | Active | inactive | inactive | inactive | inactive | inactive |  |  | Neurotoxicity (Mus musculus [7]): Not Active; Activity (Rattus norvegicus [10]): inactive; Activity (Rattus norvegicus [11]): inactive; Activity (Rattus norvegicus [12]): inactive; TD50 [18]: < 500 mg/kg; ED50 (Mus musculus [2]): > 350 mg/kg; EC50 [1]: 30 µM; EC50 [4]: 7.6 µM; ED50 (Mus musculus [19]): 73 mg/kg; PI (Mus musculus [20]): <6.851
4 | Cl.O=c1c2ccc(Cl)cc2oc2ccc(CNCCCO)cc12 | Not Active | Not Active | Not Active | Neurotoxic | Not Active | Not Active | Not Active | Not Active | Not Active | inactive | inactive | Active | inactive | inactive | inactive | inactive | inactive | inactive | inactive | inactive | Neurotoxicity (Mus musculus [30]): Not Active; Neurotoxicity (Mus musculus [31]): Not Active; Neurotoxicity (Mus musculus [32]): Neurotoxic; Activity (Rattus norvegicus [33]): inactive; Activity (Rattus norvegicus [10]): inactive; Activity (Rattus norvegicus [11]): inactive; Activity (Rattus norvegicus [12]): inactive; Activity (Rattus norvegicus [34]): inactive; Activity (Mus musculus [36]): inactive
5 | CCN(CCO)Cc1ccc2oc3cc(Cl)ccc3c(=O)c2c1 | Not Active | Not Active | Neurotoxic |  | Not Active | Not Active | Not Active | Not Active | Not Active | inactive | inactive |  |  | inactive | inactive | inactive |  |  | Active | inactive | Neurotoxicity (Mus musculus [38]): Not Active; Neurotoxicity (Mus musculus [39]): Not Active; Neurotoxicity (Mus musculus [32]): Neurotoxic; Activity (Rattus norvegicus [10]): inactive; Activity (Rattus norvegicus [11]): inactive; Activity (Rattus norvegicus [12]): inactive; Activity (Rattus norvegicus [34]): inactive; Neurotoxicity (Mus musculus [40]): Not Active; Activity (Mus musculus [41]): inactive; Activity (Mus musculus [42]): Active; Activity (Mus musculus [43]): inactive; Activity (Mus musculus [44]): inactive; Activity (Mus musculus [45]): inactive
6 | CCC(O)CNCc1ccc2oc3cc(Cl)ccc3c(=O)c2c1 (racemic) |  | Not Active |  | Neurotoxic | Not Active | Not Active | Not Active | Not Active | Not Active | Active | inactive | Active | Active | inactive | inactive | inactive | inactive | inactive | Active | inactive | Neurotoxicity (Mus musculus [38]): Not Active; Neurotoxicity (Mus musculus [32]): Neurotoxic; Neurotoxicity (Mus musculus [40]): Not Active; Activity (Mus musculus [41]): inactive; Activity (Mus musculus [42]): inactive; Activity (Mus musculus [36]): Active
7 | C[C@@H](CCl)NCc1ccc2oc3cc(Cl)ccc3c(=O)c2c1.Cl |  | Not Active | Not Active | Not Active |  |  |  |  |  | inactive | inactive | Active | Active | inactive | inactive | inactive | inactive | inactive | inactive | inactive | Neurotoxicity (Mus musculus [46]): Not Active; Activity (Mus musculus [47]): inactive
